The record followed here is patent US12371454B2, “Cyclic peptide compound having Kras inhibitory action” (priority 2019, dated 2025).

Starred links: 1 amine or outer side, 2 acyl side, 3 side chain; linkers in the order of their positions; H or OH if unused. Positions of bridges follow the written chain, without caps; N, C: chain ends. Non-standard residues stand in square brackets, D forms with d. Residues, ends and D or L forms follow the SMILES beside them. *: point of attachment. hPhe(3-Cl-4-CF3) = N[C@@H](CCc1ccc(C(F)(F)F)c(Cl)c1)C(=O)O; hPhe(4-CF3) = N[C@@H](CCc1ccc(C(F)(F)F)cc1)C(=O)O; X46 = COc1cncc(C[C@@H](C(=O)[*:2])N(C)[*:1])c1; NMePhe(4-Cl) = CN[C@@H](Cc1ccc(Cl)cc1)C(=O)O; NMePhe(2-CN) = CN[C@@H](Cc1ccccc1C#N)C(=O)O; NMeNle(6-CHF2) = CN[C@@H](CCCCC(F)F)C(=O)O; NMedβ3hAla = C[C@H](CC(=O)[*:2])N(C)[*:1]; NMeGly(cPent) = CN[C@H](C(=O)O)C1CCCC1; Phe(3-I) = N[C@@H](Cc1cccc(I)c1)C(=O)O; NMeCha = CN[C@@H](CC1CCCCC1)C(=O)O; Azetidine(3,3-F2) = FC1(F)CN(*)C1; NMeChg = CN[C@H](C(=O)O)C1CCCCC1; N(CH2CH2)2CF2 = FC1(F)CCN(*)CC1; NMeD = CN[C@@H](CC(=O)O)C(=O)O; NMeL = CN[C@@H](CC(C)C)C(=O)O; NMeV = CN[C@H](C(=O)O)C(C)C; d(β3hA) = C[C@@H](N)CC(=O)O; NMeA = CN[C@@H](C)C(=O)O; NMeAib = CNC(C)(C)C(=O)O; Nle = CCCC[C@H](N)C(=O)O; Piperidide = C1CCN(*)CC1; Pyrrolidide = C1CCN(*)C1; dNMeA = CN[C@H](C)C(=O)O; Ac5c = NC1(C(=O)O)CCCC1; Aze = O=C(O)[C@@H]1CCN1; Sar = CNCC(=O)O

The assay deals with T1, Kras and SOS1 (biotin-tagged human Kras loaded with GDP, His-tagged human SOS1) (Homo sapiens, UniProt P01116, G12D).
T1 construct: made in house; host or cells: E. coli (stated for Kras only)
T1 sequence (P01116 1-188 isoform P01116-2 G12D): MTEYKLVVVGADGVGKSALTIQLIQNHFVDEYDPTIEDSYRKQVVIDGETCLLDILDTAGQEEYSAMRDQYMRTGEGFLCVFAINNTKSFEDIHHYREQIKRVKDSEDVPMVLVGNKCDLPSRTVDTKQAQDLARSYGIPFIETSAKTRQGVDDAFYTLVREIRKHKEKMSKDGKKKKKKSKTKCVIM
The assay is described as follows: Protein-protein interaction inhibition between Kras and SOS1 (KrasGl2D-SOS PPI) using AlphaScreen. The following applies: AlphaScreen; biotin-tagged human Kras loaded with GDP, His-tagged human SOS1; read-out: KRAS G12D-SOS PPI IC50. Type of assay: binding. The gist of the method:
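AlphaScreen format: Ni donor beads capture His-SOS1, streptavidin acceptor beads capture biotinylated Kras (E. coli-expressed, GDP-loaded post-purification). Excite 680 nm, read 520-620 nm.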
A general note: Alpha assays give light when donor and acceptor beads are brought close together.

One may read the IC50 as the concentration that inhibits the measured activity by half. On to `CC[C@H](C)[C@@H]1NC(=O)[C@H](CC(C)C)N(C)C(=O)C[C@@H](C(=O)N(C)C)N(C)C(=O)[C@H](C2CCCC2)N(C)C(=O)C2(CCCC2)NC(=O)[C@H](CC(=O)N2CC(F)(F)C2)N(C)C(=O)[C@H](CCc2ccc(C(F)(F)F)c(Cl)c2)NC(=O)CN(C)C(=O)[C@H](CC2CCCCC2)N(C)C(=O)[C@@H]2CCN2C(=O)[C@H](C)N(C)C1=O` [Compound 761] ([NMeL]I[NMeA][Aze][NMeCha][Sar][hPhe(3-Cl-4-CF3)][NMeD](Azetidine(3,3-F2))[Ac5c][NMeGly(cPent)][NMeD]-NMe2; lactam N-11), for which the IC50 came out at 0.57 nM.

With `CCCC[C@@H]1NC(=O)C(C)(C)N(C)C(=O)[C@H](CCCC)NC(=O)[C@H](Cc2cccc(I)c2)NC(=O)CN(C)C(=O)[C@H](Cc2ccc(Cl)cc2)N(C)C(=O)CN(C)C(=O)CN(C)C(=O)[C@H]([C@@H](C)CC)NC(=O)[C@H](CC(C)C)N(C)C(=O)C[C@@H](C(=O)N2CCCCC2)N(C)C1=O` [Compound 765] ([NMeL]I[Sar][Sar][NMePhe(4-Cl)][Sar][Phe(3-I)][Nle][NMeAib][Nle][NMeD]-Piperidide; lactam N-11), the IC50 amounted to 50 nM.

`CC[C@H](C)[C@@H]1NC(=O)[C@H](CC(C)C)N(C)C(=O)C[C@@H](C)NC(=O)[C@H](C(C)C)N(C)C(=O)C2(CCCC2)NC(=O)[C@@H]2CCCN2C(=O)[C@H](CCc2ccc(C(F)(F)F)c(Cl)c2)NC(=O)CN(C)C(=O)[C@H](Cc2ccccc2C#N)N(C)C(=O)CN(C)C(=O)CN(C)C1=O` [Compound 767] (cyclo([Ac5c][NMeV][d(β3hA)][NMeL]I[Sar][Sar][NMePhe(2-CN)][Sar][hPhe(3-Cl-4-CF3)]P)): the IC50 was 24 nM.

`CC[C@H](C)[C@@H]1NC(=O)[C@H](CC(C)C)N(C)C(=O)C[C@@H](C(=O)N2CCCCC2)N(C)C(=O)[C@H](C2CCCCC2)N(C)C(=O)C2(CCCC2)NC(=O)[C@H](Cc2cncc(OC)c2)N(C)C(=O)[C@H](CCc2ccc(C(F)(F)F)c(Cl)c2)NC(=O)CN(C)C(=O)[C@H](CC2CCCCC2)N(C)C(=O)[C@@H]2CCN2C(=O)CN(C)C1=O` [Compound 770] ([NMeL]I[Sar][Aze][NMeCha][Sar][hPhe(3-Cl-4-CF3)][X46][Ac5c][NMeChg][NMeD]-Piperidide; lactam N-11): the IC50 was 20 nM.

In the case of `CC[C@H](C)[C@@H]1NC(=O)[C@H](C)N(C)C(=O)C[C@@H](C)NC(=O)[C@H](C(C)C)N(C)C(=O)C2(CCCC2)NC(=O)[C@@H]2CCCN2C(=O)[C@H](CCc2ccc(C(F)(F)F)c(Cl)c2)NC(=O)[C@@H](C)N(C)C(=O)[C@H](CC2CCCCC2)N(C)C(=O)CN(C)C(=O)CN(C)C1=O` [Compound 773] (cyclo([Ac5c][NMeV][d(β3hA)][NMeA]I[Sar][Sar][NMeCha][dNMeA][hPhe(3-Cl-4-CF3)]P)), the IC50 was determined as 140 nM.

For the molecule `CC[C@H](C)[C@@H]1NC(=O)[C@H](CC(C)C)N(C)C(=O)C[C@@H](C)N(C)C(=O)[C@H](C2CCCC2)N(C)C(=O)C2(CCCC2)NC(=O)[C@H](CC(=O)N2CCC(F)(F)CC2)N(C)C(=O)[C@H](CCc2ccc(C(F)(F)F)c(Cl)c2)NC(=O)CN(C)C(=O)[C@H](CC2CCCCC2)N(C)C(=O)[C@@H]2CCN2C(=O)[C@H](C)N(C)C1=O` [Compound 777] (cyclo([Ac5c][NMeGly(cPent)][NMedβ3hAla][NMeL]I[NMeA][Aze][NMeCha][Sar][hPhe(3-Cl-4-CF3)][NMeD](N(CH2CH2)2CF2))), the concentration for half-maximal inhibition (IC50) stood at 330 nM.

For `CC[C@H](C)[C@@H]1NC(=O)[C@H](C)N(C)C(=O)C[C@@H](C(=O)N2CCCC2)NC(=O)[C@H](CC(C)C)N(C)C(=O)[C@H](CCCCC(F)F)N(C)C(=O)[C@H](CC(C)C)NC(=O)[C@H](CCc2ccc(C(F)(F)F)cc2)NC(=O)CN(C)C(=O)[C@H](Cc2ccc(Cl)cc2)N(C)C(=O)CN(C)C(=O)CN(C)C1=O` [Compound 779] ([NMeA]I[Sar][Sar][NMePhe(4-Cl)][Sar][hPhe(4-CF3)]L[NMeNle(6-CHF2)][NMeL]D-Pyrrolidide; lactam N-11), the IC50 stood at 160 nM.
